Our source for the IC50 values is US20250163043A1 (TRANSTHERA SCIENCES (NANJING), INC., priority 2021, published 2025).

Where two headings read alike, the source gives them in different places. Where only a bound is given, the exact number is not on record here.

Holding throughout (assay type): biochemical
The target in one assay is CDK5/p25NCK (Homo sapiens, UniProt Q00535). The assay is described as follows: ADP-Glo kinase assay on CDK enzymatic activity, CDK5/p25NCK. The note with it: 10 concentrations from 10 μM, 4-fold, 60 min room temperature. The source says: (§1) Test samples: the compounds of the present invention, having structures shown above.
Sequence of CDK5/p25NCK (Q00535 whole entry, species assumed, the tested form may be a part): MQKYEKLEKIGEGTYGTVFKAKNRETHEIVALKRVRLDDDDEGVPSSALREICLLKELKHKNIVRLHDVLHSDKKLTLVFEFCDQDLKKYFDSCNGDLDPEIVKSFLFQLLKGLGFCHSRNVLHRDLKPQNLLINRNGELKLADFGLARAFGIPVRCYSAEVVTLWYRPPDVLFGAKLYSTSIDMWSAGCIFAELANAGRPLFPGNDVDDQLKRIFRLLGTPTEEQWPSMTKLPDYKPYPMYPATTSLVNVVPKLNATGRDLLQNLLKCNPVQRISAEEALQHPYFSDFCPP
Sequence of CDK5/p25NCK (Q15078 99-307 partner limits assumed, species assumed): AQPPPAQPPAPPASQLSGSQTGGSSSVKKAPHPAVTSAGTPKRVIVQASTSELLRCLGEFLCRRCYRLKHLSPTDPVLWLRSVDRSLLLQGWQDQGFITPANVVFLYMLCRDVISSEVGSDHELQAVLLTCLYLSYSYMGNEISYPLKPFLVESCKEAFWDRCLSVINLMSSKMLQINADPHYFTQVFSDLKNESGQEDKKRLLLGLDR
(§2) ADP-Glo Kinase Assay (ADP-Glo kinase kit), DMSO (dimethyl sulfoxide), CDK9/CycT1 (cyclin-dependent kinase 9/cyclin T1), CDK tide (cyclin-dependent kinase substrate peptide fragments), CDK1/CycE1 (cyclin-dependent kinase 1/cyclin E1), CDK2/CycA2 (cyclin-dependent kinase 2/cyclin A2), CDK3/CycE1 (cyclin-dependent kinase 3/cyclin E1), CDK4/CycD3 (cyclin-dependent kinase 4/cyclin D3), CDK5/p25NCK (cyclin-dependent kinase 5/p25), and AZD 4573.
(§3) A 384-well white plate, a 96-well plate, a microplate oscillator, a centrifuge, and a microplate reader.
(§4) The compounds were dissolved in DMSO and diluted 4-fold in the 96-well plate to obtain stock solutions with 10 concentration gradients, and added into a 384-well plate system to obtain a series of 10 concentration gradients of compound solutions with final concentrations of 10 μM starting and 4-fold gradient decreasing. 1 μM AZD4573 was used as compound positive control (PC) and 0.5% DMSO as solvent vehicle control (VC), ten duplicated wells each for PC and VC.
(§5) 1 μL of compound solution and 2 μL of 2× kinase solution were transferred to each well, and the plate was centrifuged at 1000 g for 30 s and left at room temperature for 10 min. A mixture of 2× substrate and ATP was prepared in 1× kinase buffer. The reaction was started after adding 2 μL of substrate and ATP into the plate. The plate was centrifuged at 1000 g for 30 s. The assay plate was closed and left at room temperature for 60 min. The reaction system was added with 4 μL of ADP Glo reagent, centrifuged at 1000 rpm for 1 min, and incubated at room temperature for 40 min. The reaction system was added with 8 μL of kinase assay reagent, centrifuged at 1000 rpm for 1 min and incubated at room temperature for 40 min. The […] was read on Biotek.
(§6) The inhibition rate was calculated according to the following formula: […]
(§7) Lumcmpd: compound fluorescence reading; Lumpositive: average value of the fluorescence reading of positive compound control; Lumvehicle: average value of the fluorescence reading of solvent vehicle control.
(§8) IC50 values were fitted using GraphPad 7.0 based on inhibition rates of compounds at different concentrations.
(ADP-Glo first removes unused ATP, then detects ADP through luciferase.)

The target of a further assay is CDK3/CycE1 (Homo sapiens, UniProt Q00526). The assay is described as follows: ADP-Glo kinase assay on CDK enzymatic activity, CDK3/CycE1. The note with it: 10 concentrations from 10 μM, 4-fold, 60 min room temperature.
Sequence of CDK3/CycE1 (Q00526 whole entry, species assumed): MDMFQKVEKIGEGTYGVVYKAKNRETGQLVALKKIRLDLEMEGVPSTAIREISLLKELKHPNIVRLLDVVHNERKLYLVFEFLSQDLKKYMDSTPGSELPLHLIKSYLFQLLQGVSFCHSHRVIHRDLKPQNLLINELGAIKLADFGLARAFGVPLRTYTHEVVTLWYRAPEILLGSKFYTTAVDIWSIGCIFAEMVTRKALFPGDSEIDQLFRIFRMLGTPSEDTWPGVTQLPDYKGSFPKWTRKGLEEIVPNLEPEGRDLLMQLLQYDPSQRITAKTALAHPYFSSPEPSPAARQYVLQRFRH
Sequence of CDK3/CycE1 (P24864 whole entry partner, species assumed): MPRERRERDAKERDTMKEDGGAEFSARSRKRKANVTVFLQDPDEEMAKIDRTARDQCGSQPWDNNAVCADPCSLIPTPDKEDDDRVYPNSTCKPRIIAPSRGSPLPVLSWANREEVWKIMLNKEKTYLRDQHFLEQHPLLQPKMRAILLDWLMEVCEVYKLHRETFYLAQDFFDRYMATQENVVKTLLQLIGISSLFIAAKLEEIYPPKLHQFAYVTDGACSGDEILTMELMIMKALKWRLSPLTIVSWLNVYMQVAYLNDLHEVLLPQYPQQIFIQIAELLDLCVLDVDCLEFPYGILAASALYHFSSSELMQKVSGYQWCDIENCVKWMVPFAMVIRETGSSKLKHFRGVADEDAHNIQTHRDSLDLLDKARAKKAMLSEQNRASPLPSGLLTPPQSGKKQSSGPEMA
From the text: as §1, §2, §3, §4, §5, §6, §7, §8

A further assay addresses CDK2/CycA2 (Homo sapiens, UniProt P24941). The assay is described as follows: ADP-Glo kinase assay on CDK enzymatic activity, CDK2/CycA2. The note with it: 10 concentrations from 10 μM, 4-fold, 60 min room temperature.
From the text: as §1, §2, §3, §4, §5, §6, §7, §8

In the next assay the target is CDK9/CycT1 (Homo sapiens, UniProt P50750). The assay is described as follows: ADP-Glo kinase assay on CDK enzymatic activity, CDK9/CycT1. The note with it: 10 concentrations from 10 μM, 4-fold, 60 min room temperature. The gist of the method:
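Compounds were tested as 10-point, 4-fold dilutions from 10 μM final, preincubated 10 min at room temperature with kinase, then reacted 60 min with CDK tide substrate and ATP. ADP formed was detected by ADP-Glo luminescence; inhibition was normalised to 1 μM AZD4573 and 0.5% DMSO controls and IC50 fitted.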

The target of another assay is CDK1/CycE1 (Homo sapiens, UniProt P06493). The assay is described as follows: ADP-Glo kinase assay on CDK enzymatic activity, CDK1/CycE1. As to the method: as §1, §3, §4, §5, §6, §7, §8
Sequence of CDK1/CycE1 (P06493 whole entry, species assumed): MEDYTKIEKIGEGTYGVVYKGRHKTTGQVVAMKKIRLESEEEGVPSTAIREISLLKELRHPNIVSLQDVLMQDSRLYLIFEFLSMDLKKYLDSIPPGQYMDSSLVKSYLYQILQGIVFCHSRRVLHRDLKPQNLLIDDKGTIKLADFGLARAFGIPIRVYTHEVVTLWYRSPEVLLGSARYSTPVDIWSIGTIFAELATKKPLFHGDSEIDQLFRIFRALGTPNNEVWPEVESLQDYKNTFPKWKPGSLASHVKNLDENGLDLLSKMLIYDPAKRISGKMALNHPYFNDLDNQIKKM
Sequence of CDK1/CycE1 (P24864 whole entry partner, species assumed): as the sequence (P24864 whole entry partner, species assumed) above
Where [1] appears, read: ADP-Glo, 10 concentrations from 10 μM, 4-fold, 60 min room temperature, read-out: CDK1/CycE1/nM (IC50).

Sequence of CDK9/CycT1 (P50750 whole entry): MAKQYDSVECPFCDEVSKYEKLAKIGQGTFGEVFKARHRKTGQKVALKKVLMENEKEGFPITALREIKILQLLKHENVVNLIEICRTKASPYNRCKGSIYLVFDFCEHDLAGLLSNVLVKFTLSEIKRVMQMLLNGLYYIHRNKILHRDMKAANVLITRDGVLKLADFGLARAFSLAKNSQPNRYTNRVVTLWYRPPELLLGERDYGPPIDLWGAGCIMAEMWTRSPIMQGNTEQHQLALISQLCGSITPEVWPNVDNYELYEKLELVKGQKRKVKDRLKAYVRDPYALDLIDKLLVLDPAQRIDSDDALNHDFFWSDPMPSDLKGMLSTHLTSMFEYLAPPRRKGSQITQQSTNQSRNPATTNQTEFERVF
Sequence of CDK9/CycT1 (O60563 whole entry partner): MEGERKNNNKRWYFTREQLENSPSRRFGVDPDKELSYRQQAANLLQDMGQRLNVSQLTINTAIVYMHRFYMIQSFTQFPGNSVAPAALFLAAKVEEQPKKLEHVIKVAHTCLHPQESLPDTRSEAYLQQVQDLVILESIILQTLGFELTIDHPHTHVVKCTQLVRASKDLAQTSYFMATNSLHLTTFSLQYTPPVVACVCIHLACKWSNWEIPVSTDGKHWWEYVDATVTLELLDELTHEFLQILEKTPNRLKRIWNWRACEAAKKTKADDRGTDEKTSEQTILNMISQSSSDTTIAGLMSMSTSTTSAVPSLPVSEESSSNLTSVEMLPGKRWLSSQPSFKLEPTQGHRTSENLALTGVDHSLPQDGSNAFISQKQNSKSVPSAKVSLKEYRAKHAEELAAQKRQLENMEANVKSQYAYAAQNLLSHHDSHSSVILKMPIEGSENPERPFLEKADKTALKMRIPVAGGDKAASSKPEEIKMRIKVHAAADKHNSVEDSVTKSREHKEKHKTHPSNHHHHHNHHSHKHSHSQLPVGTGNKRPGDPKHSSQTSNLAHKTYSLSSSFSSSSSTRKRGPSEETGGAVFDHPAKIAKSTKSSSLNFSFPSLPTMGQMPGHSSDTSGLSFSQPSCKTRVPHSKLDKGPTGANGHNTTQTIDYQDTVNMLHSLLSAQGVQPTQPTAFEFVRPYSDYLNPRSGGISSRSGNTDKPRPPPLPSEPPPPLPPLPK

With `CC(C)Nc1nc(C(F)F)cc2cnc(N[C@H]3CCCNC3)cc12` [Compound 54, (S)-3-(difluoromethyl)-N^1-isopropyl-N^7-(piperidin-3-yl)-2,6-naphthyridine-1,7-diamine], the IC50 amounted to 10 nM on CDK5/p25NCK, 14 nM against CDK3/CycE1, 15 nM against CDK2/CycA2 and 1 nM on CDK9/CycT1.

Consider `N#Cc1cc2cnc(N[C@H]3CC[C@H](N)C3)cc2c(NCC2(C#N)CCOCC2)n1` [Compound 60, 7-(((1S,3S)-3-aminocyclopentyl)amino)-1-(((4-cyanotetrahydro-2H-pyran-4-yl)methyl)amino)-2,6-naphthyridine-3-carbonitrile], for which the IC50 was 8390 nM against CDK5/p25NCK, no less than 12100 nM against CDK3/CycE1, 1810 nM at CDK2/CycA2 and 29 nM against CDK9/CycT1.

`CC(=O)N1CCC[C@H](C(=O)Nc2cc3c(NC(C)C)nc(C#N)cc3cn2)C1` [Compound 24, (S)-1-acetyl-N-(7-cyano-5-(isopropylamino)-2,6-naphthyridin-3-yl)piperidine-3-carboxamide]: the IC50 came to 5340 nM against CDK5/p25NCK, 862 nM at CDK3/CycE1, 3340 nM at CDK2/CycA2 and 26 nM at CDK9/CycT1.

Regarding `N#Cc1cc2cnc(N[C@H]3CCCNC3)cc2c(N[C@H](CO)c2ccccc2)n1` [Compound 104, 1-(((S)-2-hydroxy-1-phenylethyl)amino)-7-(((S)-piperidin-3-yl)amino)-2,6-naphthyridine-3-carbonitrile], the IC50 against CDK5/p25NCK came to 2200 nM; at CDK3/CycE1, 550 nM; at CDK2/CycA2 it was 888 nM; against CDK9/CycT1, 10 nM.

For `CC(=O)N[C@@H]1CCC[C@H](C(=O)Nc2cc3c(NC(C)C)nc(C#N)cc3cn2)C1` [Compound 2, (1S,3R)-3-acetamido-N-(7-cyano-5-(isopropylamino)-2,6-naphthyridin-3-yl)cyclohexane-1-carboxamide], the IC50 stood at 783 nM against CDK5/p25NCK, 179 nM against CDK3/CycE1, 669 nM against CDK2/CycA2 and 8 nM against CDK9/CycT1.

Regarding `CC1(Nc2nc(C#N)cc3cnc(N[C@H]4CC[C@H](N)C4)cc23)CC1` [Compound 50, 7-(((1S,3S)-3-aminocyclopentyl)amino)-1-((1-methylcyclopropyl)amino)-2,6-naphthyridine-3-carbonitrile], the IC50 against CDK5/p25NCK stood at 119 nM; on CDK3/CycE1, 208 nM; on CDK2/CycA2 it was 73 nM; against CDK9/CycT1, 2 nM.

On to `CC(C)(C)Nc1nc(C#N)cc2cnc(N[C@H]3CC[C@H](N)C3)cc12` [Compound 34, 7-(((1S,3S)-3-aminocyclopentyl)amino)-1-(tert-butylamino)-2,6-naphthyridine-3-carbonitrile], for which the IC50 at CDK5/p25NCK was found to be 238 nM; against CDK3/CycE1, 137 nM; on CDK2/CycA2 it was 128 nM; at CDK9/CycT1, 2 nM.

In the case of `CC(=O)N[C@@H]1CCC[C@H](C(=O)Nc2cc3c(NC(C)C)nc(CCO)cc3cn2)C1` [Compound 14, (1S,3R)-3-acetamido-N-(7-(2-hydroxyethyl)-5-(isopropylamino)-2,6-naphthyridin-3-yl)cyclohexane-1-carboxamide], the IC50 at CDK5/p25NCK turned out to be 187 nM; at CDK3/CycE1 it was 91 nM; at CDK2/CycA2, 284 nM; against CDK9/CycT1, 11 nM.

Consider `CC(C)(C)Nc1nc(C#N)cc2cnc(N[C@H]3CC[C@H](O)C3)cc12` [Compound 35, 1-(tert-butylamino)-7-(((1S,3S)-3hydroxycyclopentyl)amino)-2,6-naphthyridine-3-carbonitrile], for which the IC50 against CDK5/p25NCK stood at 36 nM; against CDK3/CycE1 it was 35 nM; against CDK2/CycA2 it was 14 nM; at CDK9/CycT1 it was 1 nM.

In the case of `CC(C)Nc1nc(C#N)cc2cnc(N[C@H]3CC[C@@H](N)C3)cc12` [Compound 29, 7-(((1S,3R)-3-aminocyclopentyl)amino)-1-(isopropylamino)-2,6-naphthyridine-3-carbonitrile], the IC50 against CDK5/p25NCK was 461 nM; on CDK3/CycE1, 1210 nM; against CDK2/CycA2, 514 nM; against CDK9/CycT1, 4 nM.

Regarding `CC(C)Oc1nc(C#N)cc2cnc(N[C@H]3CC[C@H](N)C3)cc12` [Compound 51, 7-(((1S,3S)-3-aminocyclopentyl)amino)-1-isopropoxy-2,6-naphthyridine-3-carbonitrile], the IC50 against CDK5/p25NCK is 142 nM; at CDK3/CycE1, 88 nM; against CDK2/CycA2 it was 73 nM; against CDK9/CycT1 it was 1 nM.

`C#Cc1cc2cnc(NC(=O)[C@H]3CCC[C@@H](NC(C)=O)C3)cc2c(NC(C)C)n1` [Compound 13, (1S,3R)-3-acetamido-N-(7-ethynyl-5-(isopropylamino)-2,6-naphthyridin-3-yl)cyclohexane-1-carboxamide]: the IC50 on CDK5/p25NCK came to 527 nM; on CDK3/CycE1 it was 41 nM; on CDK2/CycA2, 402 nM; against CDK9/CycT1, 13 nM.

On to `CC(C)Nc1nc(C#N)cc2cnc(N[C@@H]3CNCC(F)(F)C3)cc12` [Compound 43, (S)-7-((5,5-difluoropiperidin-3-yl)amino)-1-(isopropylamino)-2,6-naphthyridine-3-carbonitrile], for which the IC50 is 23 nM against CDK5/p25NCK, 75 nM at CDK3/CycE1, 13 nM against CDK2/CycA2 and 2 nM at CDK9/CycT1.

For the compound `CCC(CC)Nc1nc(C#N)cc2cnc(N[C@H]3CC[C@H](N)C3)cc12` [Compound 48, 7-(((1S,3S)-3-aminocyclopentyl)amino)-1-(pentan-3-ylamino)-2,6-naphthyridine-3-carbonitrile], the IC50 at CDK5/p25NCK was 266 nM; at CDK3/CycE1, 477 nM; at CDK2/CycA2 it was 199 nM; against CDK9/CycT1, 2 nM.

`CC(C)Nc1nc(C#N)cc2cnc(N[C@@H]3CCCNC3)cc12` [Compound 39, (R)-1-(isopropylamino)-7-(piperidin-3-ylamino)-2,6-naphthyridine-3-carbonitrile]: the IC50 on CDK5/p25NCK worked out at 161 nM; at CDK3/CycE1, 278 nM; on CDK2/CycA2 it was 84 nM; at CDK9/CycT1, 2 nM.

Regarding `N#Cc1cc2cnc(N[C@H]3CC[C@H](N)C3)cc2c(NC2CCCC2)n1` [Compound 49, 7-(((1S,3S)-3-aminocyclopentyl)amino)-1-(cyclopentylamino)-2,6-naphthyridine-3-carbonitrile], the IC50 at CDK5/p25NCK was found to be 93 nM; at CDK3/CycE1 it was 105 nM; at CDK2/CycA2, 57 nM; against CDK9/CycT1, 2 nM.

`CC(C)Nc1nc(C#N)cc2cnc(N[C@H]3C[C@H](N)C3)cc12` [Compound 183, 7-(((1r,3r)-3-aminocyclobutyl)amino)-1-(isopropylamino)-2,6-naphthyridine-3-carbonitrile]: the IC50 was found to be 50 nM at CDK1/CycE1 (setting [1]), 28 nM on CDK2/CycA2 and 1 nM against CDK9/CycT1.

Regarding `CC(C)Nc1nc(C#N)cc2cnc(N[C@H]3CC[C@H](N4CCOCC4)CC3)nc12` [Compound 141, 8-(isopropylamino)-2-(((1r,4r)-4-morpholinocyclohexyl)amino)pyrido[3,4-d]pyrimidine-6-carbonitrile], the IC50 at CDK1/CycE1 (setting [1]) was found to be 197 nM; on CDK2/CycA2, 23 nM; at CDK9/CycT1, 2 nM.

Regarding `CC(C)Nc1nc(C#N)cc2cnc(N[C@@H]3CN4CCC3CC4)cc12` [Compound 44, (S)-1-(isopropylamino)-7-(quinuclidin-3-ylamino)-2,6-naphthyridine-3-carbonitrile], the IC50 on CDK5/p25NCK amounted to 3630 nM; at CDK3/CycE1, 288 nM; on CDK2/CycA2, 1170 nM; on CDK9/CycT1 it was 2 nM.

In the case of `CCOc1nc(C#N)cc2cnc(N[C@H]3C[C@H](N)C3)cc12` [Compound 191, 7-(((1r,3r)-3-aminocyclobutyl)amino)-1-ethoxy-2,6-naphthyridine-3-carbonitrile], the IC50 on CDK1/CycE1 is 1950 nM; on CDK2/CycA2 it was 1110 nM; against CDK9/CycT1, 5 nM.

Regarding `CC(C)Nc1nc(C#N)cc2cnc(N[C@H]3C[C@H](O)C3)nc12` [Compound 134, 2-(((1r,3r)-3-hydroxycyclobutyl)amino)-8-(isopropylamino)pyrido[3,4-d]pyrimidine-6-carbonitrile], the IC50 at CDK1/CycE1 (setting [1]) was 11 nM; against CDK2/CycA2, 5 nM; at CDK9/CycT1, 1 nM.
